Key:
Assay type in all cases: in vivo
[1] = system: Setaria viridis; assay: Test Example 4: herbicidal effect by application to foliage (diluvial soil, plastic box); conditions: for G: herbicidal effect on Setaria viridis: application to foliage, application herbicide amount 320 g/ha
Summary of the method: (§1)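 Greenhouse plants (25° C. to 30° C., 14 d, diluvial soil) receive a foliar spray of water-diluted emulsifiable formulation at defined g/ha. Grading after 3 weeks uses a six-step herbicidal-ratio scale, with 4 covering 70% to <90% and 1 covering 5% to <20%.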

[2] = system: Avena fatua; assay: as above; conditions: for I: herbicidal effect on Avena fatua: application to foliage, application herbicide amount 320 g/ha
Summary of the method: as §1

[3] = system: Echinochloa crus-galli var. crus-galli; assay: as above; conditions: for H: herbicidal effect on Echinochloa crus-galli var. crus-galli: application to foliage, application herbicide amount 320 g/ha
Summary of the method: as §1

[4] = system: Apera spica-venti.; assay: as above; conditions: for L: herbicidal effect on Apera spica-venti.: application to foliage, application herbicide amount 320 g/ha
Summary of the method: as §1

[5] = system: Galium spurium; assay: as above; conditions: for Q: herbicidal effect on Galium spurium: application to foliage, application herbicide amount 320 g/ha
Summary of the method: as §1

[6] = system: Amaranthus retroflexus; assay: as above; conditions: for N: herbicidal effect on Amaranthus retroflexus: application to foliage, application herbicide amount 320 g/ha
Summary of the method: as §1

[7] = system: Veronica persica; assay: as above; conditions: for R: herbicidal effect on Veronica persica: application to foliage, application herbicide amount 320 g/ha
Summary of the method: as §1

[8] = system: Alopecurus myosuroides; assay: as above; conditions: for J: herbicidal effect on Alopecurus myosuroides: application to foliage, application herbicide amount 320 g/ha
Summary of the method: as §1

[9] = system: Chenopodium album; assay: as above; conditions: for O: herbicidal effect on Chenopodium album: application to foliage, application herbicide amount 320 g/ha
Summary of the method: as §1

[10] = system: Digitaria ciliaris; assay: as above; conditions: for F: herbicidal effect on Digitaria ciliaris: application to foliage, application herbicide amount 320 g/ha
Summary of the method: as §1

[11] = system: Abutilon theophrasti; assay: as above; conditions: for M: herbicidal effect on Abutilon theophrasti: application to foliage, application herbicide amount 320 g/ha
Summary of the method: as §1

[12] = system: Lolium multiflorum Lam.; assay: as above; conditions: for K: herbicidal effect on Lolium multiflorum Lam.: application to foliage, application herbicide amount 320 g/ha
Summary of the method: as §1

[13] = system: Monochoria vaginalis; assay: Test Example 2: herbicidal activity, application during weed generation in submerged conditions; conditions: Eighteenth Table; application herbicide amount 320 g/ha
Summary of the method: (§2)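 Seeds were sown together in alluvial soil kept under 4 cm of water and grown at 25 °C to 30 °C. Once plants reached the one- to two-leaf stage, the diluted emulsion was applied to the water surface at a predetermined g/ha amount, and effects were rated 0–5 after three weeks.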

[14] = system: Scirpus juncoides; assay: as above; conditions: Eighteenth Table; application herbicide amount 320 g/ha
Summary of the method: as §2

[15] = system: Echinochloa oryzacola Vasing.; assay: as above; conditions: Eighteenth Table; application herbicide amount 320 g/ha
Summary of the method: as §2

[16] = Application herbicide amount 320 g/ha, foliage application

Question: Which “G (Setaria viridis) herbicidal effect grade” value [1, 16] does the source give for `CCN(CC)c1nnc2c(C(=O)Nc3nnco3)ccc(C(F)(F)F)n12` [1-138] here?
Answer: 3 (Herbicidal ratio of 40% or more and less than 70%)

Question: And the “I (Avena fatua) herbicidal effect grade” value [2, 16]?
Answer: 2 (Herbicidal ratio of 20% or more and less than 40%)

Question: What about the “H (Echinochloa crus-galli var. crus-galli) herbicidal effect grade” value [3, 16] of the same compound?
Answer: 5 (Herbicidal ratio of 90% or more (almost completely withered))

Question: And the “L (Apera spica-venti.) herbicidal effect grade” value [4, 16]?
Answer: 3 (Herbicidal ratio of 40% or more and less than 70%)

Question: What about the “Q (Galium spurium) herbicidal effect grade” value [5, 16] of the same compound?
Answer: 2 (Herbicidal ratio of 20% or more and less than 40%)

Question: What about the “N (Amaranthus retroflexus) herbicidal effect grade” value [6, 16] of the same compound?
Answer: 4 (Herbicidal ratio of 70% or more and less than 90%)

Question: What about the “R (Veronica persica) herbicidal effect grade” value [7, 16] of the same compound?
Answer: 5 (Herbicidal ratio of 90% or more (almost completely withered))

Question: And the “J (Alopecurus myosuroides) herbicidal effect grade” value [8, 16]?
Answer: 1 (Herbicidal ratio of 5% or more and less than 20%)

Question: What about the “O (Chenopodium album) herbicidal effect grade” value [9, 16] of the same compound?
Answer: 5 (Herbicidal ratio of 90% or more (almost completely withered))

Question: What about the “F (Digitaria ciliaris) herbicidal effect grade” value [10, 16] of the same compound?
Answer: 4 (Herbicidal ratio of 70% or more and less than 90%)

Question: And the “M (Abutilon theophrasti) herbicidal effect grade” value [11, 16]?
Answer: 3 (Herbicidal ratio of 40% or more and less than 70%)

Question: What about the “K (Lolium multiflorum Lam.) herbicidal effect grade” value [12, 16] of the same compound?
Answer: 1 (Herbicidal ratio of 5% or more and less than 20%)

Question: What about the “C (Monochoria vaginalis) herbicidal ratio grade” value [13] of the same compound?
Answer: 3 (Herbicidal ratio of 40% or more and less than 70%)

Question: What about the “B (Scirpus juncoides) herbicidal ratio grade” value [14] of the same compound?
Answer: 3 (Herbicidal ratio of 40% or more and less than 70%)

Question: And the “A (Echinochloa oryzicola Vasing.) herbicidal ratio grade” value [15]?
Answer: 3 (Herbicidal ratio of 40% or more and less than 70%)

Question: Which results are given for `CCOCc1nnc2c(C(=O)Nc3nnnn3C)ccc(C(F)(F)F)n12` [2-026]?
Answer: G: herbicidal effect on Setaria viridis [1]: 4 (Herbicidal ratio of 70% or more and less than 90%); I: herbicidal effect on Avena fatua [2]: 3 (Herbicidal ratio of 40% or more and less than 70%); H: herbicidal effect on Echinochloa crus-galli var. crus-galli [3]: 5 (Herbicidal ratio of 90% or more (almost completely withered)); L: herbicidal effect on Apera spica-venti. [4]: 3 (Herbicidal ratio of 40% or more and less than 70%); Q: herbicidal effect on Galium spurium [5]: 4 (Herbicidal ratio of 70% or more and less than 90%); N: herbicidal effect on Amaranthus retroflexus [6]: 5 (Herbicidal ratio of 90% or more (almost completely withered)); R: herbicidal effect on Veronica persica [7]: 5 (Herbicidal ratio of 90% or more (almost completely withered)); J: herbicidal effect on Alopecurus myosuroides [8]: 4 (Herbicidal ratio of 70% or more and less than 90%); O: herbicidal effect on Chenopodium album [9]: 5 (Herbicidal ratio of 90% or more (almost completely withered)); F: herbicidal effect on Digitaria ciliaris [10]: 5 (Herbicidal ratio of 90% or more (almost completely withered)); M: herbicidal effect on Abutilon theophrasti [11]: 5 (Herbicidal ratio of 90% or more (almost completely withered)); K: herbicidal effect on Lolium multiflorum Lam. [12]: 3 (Herbicidal ratio of 40% or more and less than 70%); C (Monochoria vaginalis) herbicidal ratio grade [13]: 4 (Herbicidal ratio of 70% or more and less than 90%); B (Scirpus juncoides) herbicidal ratio grade [14]: 5 (Herbicidal ratio of 90% or more (almost completely withered)); A (Echinochloa oryzicola Vasing.) herbicidal ratio grade [15]: 5 (Herbicidal ratio of 90% or more (almost completely withered))

Question: What does the source list for `CCC(C)c1nnc2c(C(=O)Nc3nnnn3C)ccc(C(F)(F)F)n12` (stereo not drawn) [2-016]?
Answer: G: herbicidal effect on Setaria viridis [1]: 5 (Herbicidal ratio of 90% or more (almost completely withered)); I: herbicidal effect on Avena fatua [2]: 4 (Herbicidal ratio of 70% or more and less than 90%); H: herbicidal effect on Echinochloa crus-galli var. crus-galli [3]: 5 (Herbicidal ratio of 90% or more (almost completely withered)); L: herbicidal effect on Apera spica-venti. [4]: 4 (Herbicidal ratio of 70% or more and less than 90%); Q: herbicidal effect on Galium spurium [5]: 3 (Herbicidal ratio of 40% or more and less than 70%); N: herbicidal effect on Amaranthus retroflexus [6]: 5 (Herbicidal ratio of 90% or more (almost completely withered)); R: herbicidal effect on Veronica persica [7]: 5 (Herbicidal ratio of 90% or more (almost completely withered)); J: herbicidal effect on Alopecurus myosuroides [8]: 4 (Herbicidal ratio of 70% or more and less than 90%); O: herbicidal effect on Chenopodium album [9]: 5 (Herbicidal ratio of 90% or more (almost completely withered)); F: herbicidal effect on Digitaria ciliaris [10]: 5 (Herbicidal ratio of 90% or more (almost completely withered)); M: herbicidal effect on Abutilon theophrasti [11]: 5 (Herbicidal ratio of 90% or more (almost completely withered)); K: herbicidal effect on Lolium multiflorum Lam. [12]: 4 (Herbicidal ratio of 70% or more and less than 90%); C (Monochoria vaginalis) herbicidal ratio grade [13]: 5 (Herbicidal ratio of 90% or more (almost completely withered)); B (Scirpus juncoides) herbicidal ratio grade [14]: 5 (Herbicidal ratio of 90% or more (almost completely withered)); A (Echinochloa oryzicola Vasing.) herbicidal ratio grade [15]: 5 (Herbicidal ratio of 90% or more (almost completely withered))

Question: How did the “G: herbicidal effect on Setaria viridis” value [1] turn out when `Cn1nnnc1NC(=O)c1ccc(C(F)(F)F)n2c(Cl)nnc12` [2-008] was run?
Answer: 2 (Herbicidal ratio of 20% or more and less than 40%)

Question: And the “I: herbicidal effect on Avena fatua” value [2]?
Answer: 3 (Herbicidal ratio of 40% or more and less than 70%)

Question: What about the “H: herbicidal effect on Echinochloa crus-galli var. crus-galli” value [3] of the same compound?
Answer: 4 (Herbicidal ratio of 70% or more and less than 90%)

Question: What about the “L: herbicidal effect on Apera spica-venti.” value [4] of the same compound?
Answer: 1 (Herbicidal ratio of 5% or more and less than 20%)

Question: And the “Q: herbicidal effect on Galium spurium” value [5]?
Answer: 3 (Herbicidal ratio of 40% or more and less than 70%)

Question: And the “N: herbicidal effect on Amaranthus retroflexus” value [6]?
Answer: 5 (Herbicidal ratio of 90% or more (almost completely withered))

Question: And the “R: herbicidal effect on Veronica persica” value [7]?
Answer: 4 (Herbicidal ratio of 70% or more and less than 90%)

Question: What about the “J: herbicidal effect on Alopecurus myosuroides” value [8] of the same compound?
Answer: 1 (Herbicidal ratio of 5% or more and less than 20%)

Question: And the “O: herbicidal effect on Chenopodium album” value [9]?
Answer: 5 (Herbicidal ratio of 90% or more (almost completely withered))

Question: What about the “F: herbicidal effect on Digitaria ciliaris” value [10] of the same compound?
Answer: 3 (Herbicidal ratio of 40% or more and less than 70%)

Question: And the “M: herbicidal effect on Abutilon theophrasti” value [11]?
Answer: 5 (Herbicidal ratio of 90% or more (almost completely withered))

Question: What about the “K: herbicidal effect on Lolium multiflorum Lam.” value [12] of the same compound?
Answer: 2 (Herbicidal ratio of 20% or more and less than 40%)

Question: And the “C (Monochoria vaginalis) herbicidal ratio grade” value [13]?
Answer: 3 (Herbicidal ratio of 40% or more and less than 70%)

Question: What about the “B (Scirpus juncoides) herbicidal ratio grade” value [14] of the same compound?
Answer: 2 (Herbicidal ratio of 20% or more and less than 40%)

Question: And the “A (Echinochloa oryzicola Vasing.) herbicidal ratio grade” value [15]?
Answer: 3 (Herbicidal ratio of 40% or more and less than 70%)

Question: What does the source list for `Cn1nnnc1NC(=O)c1ccc(C(F)(F)F)n2c(-c3ccccc3)nnc12` [2-007]?
Answer: G: herbicidal effect on Setaria viridis [1]: 4 (Herbicidal ratio of 70% or more and less than 90%); I: herbicidal effect on Avena fatua [2]: 3 (Herbicidal ratio of 40% or more and less than 70%); H: herbicidal effect on Echinochloa crus-galli var. crus-galli [3]: 5 (Herbicidal ratio of 90% or more (almost completely withered)); L: herbicidal effect on Apera spica-venti. [4]: 4 (Herbicidal ratio of 70% or more and less than 90%); Q: herbicidal effect on Galium spurium [5]: 1 (Herbicidal ratio of 5% or more and less than 20%); N: herbicidal effect on Amaranthus retroflexus [6]: 5 (Herbicidal ratio of 90% or more (almost completely withered)); R: herbicidal effect on Veronica persica [7]: 5 (Herbicidal ratio of 90% or more (almost completely withered)); J: herbicidal effect on Alopecurus myosuroides [8]: 2 (Herbicidal ratio of 20% or more and less than 40%); O: herbicidal effect on Chenopodium album [9]: 5 (Herbicidal ratio of 90% or more (almost completely withered)); F: herbicidal effect on Digitaria ciliaris [10]: 5 (Herbicidal ratio of 90% or more (almost completely withered)); M: herbicidal effect on Abutilon theophrasti [11]: 5 (Herbicidal ratio of 90% or more (almost completely withered)); K: herbicidal effect on Lolium multiflorum Lam. [12]: 2 (Herbicidal ratio of 20% or more and less than 40%); C (Monochoria vaginalis) herbicidal ratio grade [13]: 4 (Herbicidal ratio of 70% or more and less than 90%); B (Scirpus juncoides) herbicidal ratio grade [14]: 4 (Herbicidal ratio of 70% or more and less than 90%); A (Echinochloa oryzicola Vasing.) herbicidal ratio grade [15]: 4 (Herbicidal ratio of 70% or more and less than 90%)
